Experimental data: the supplement of paper PMC8671470

Tests used:
Conditions in all cases: 72 h
BV-173 [1] = tested on: BV-173
Procedure, shortened: (§1)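 The IC50 was derived from log-logistic dose–response fitting. Each of fifteen myeloid leukaemia cell lines, seeded in RPMI 1640 within its linear growth range, was exposed in 384-well plates to five tenfold doses (1 to 10,000 nM) in duplicate for 72 h at 37 °C and 5% CO2. Luminescent ATP viability readings were normalised to vehicle and to a positive control at 10 µM before four-parameter curve fitting.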

HEL [2] = tested on: HEL
Procedure, shortened: as §1

HL-60 [3] = tested on: HL-60
Procedure, shortened: as §1

K-562 = tested on: K-562
Procedure, shortened: as §1

KCL-22 [4] = tested on: KCL-22
Procedure, shortened: as §1

KG-1 [5] = tested on: KG-1
Procedure, shortened: as §1

KU-812 [6] = tested on: KU-812
Procedure, shortened: as §1

LAMA-84 [7] = tested on: LAMA-84
Procedure, shortened: as §1

ML-2 [8] = tested on: ML-2
Procedure, shortened: as §1

MOLM-13 [9] = tested on: MOLM-13
Procedure, shortened: as §1

MV4-11 [10] = tested on: MV4-11
Procedure, shortened: as §1

Mono-Mac-6 [11] = tested on: Mono-Mac-6
Procedure, shortened: as §1

NOMO-1 [12] = tested on: NOMO-1
Procedure, shortened: as §1

SHI-1 [13] = tested on: SHI-1
Procedure, shortened: as §1

THP-1 [14] = tested on: THP-1
Procedure, shortened: as §1

BV-173 [15] = assay: cell viability (% survival relative to DMSO control, bortezomib = 0%); higher = less cytotoxic
Procedure, shortened: (§2)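 In 384-well plates pre-printed with compounds at 1, 10, 100, 1000 or 10000 nM, duplicate wells received cells from 10 AML and 5 CML lines at densities within the linear growth range. The plates stayed at 37 °C with 5% CO2 for 72 h before CellTiter-Glo luminescence was recorded. Each entry is averaged percent survival. Scaling placed vehicle at 100% and a 10 µM positive control at 0%.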

HEL [16] = assay: as above
Procedure, shortened: as §2

HL-60 [17] = assay: as above
Procedure, shortened: as §2

KCL-22 [18] = assay: as above
Procedure, shortened: as §2

KG-1 [19] = assay: as above
Procedure, shortened: as §2

KU-812 [20] = assay: as above
Procedure, shortened: as §2

LAMA-84 [21] = assay: as above
Procedure, shortened: as §2

ML-2 [22] = assay: as above
Procedure, shortened: as §2

MOLM-13 [23] = assay: as above
Procedure, shortened: as §2

MV4-11 [24] = assay: as above
Procedure, shortened: as §2

Mono-Mac-6 [25] = assay: as above
Procedure, shortened: as §2

NOMO-1 [26] = assay: as above
Procedure, shortened: as §2

SHI-1 [27] = assay: as above
Procedure, shortened: as §2

THP-1 [28] = assay: as above
Procedure, shortened: as §2

HL-60 [29] = assay: area under dose-response curve (viability, 1 nM-10 uM) (fraction (0-1)); higher = more sensitive
Procedure, shortened: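 A rescreen of the full library used HL-60 cells in RPMI 1640 with 10% FBS on 384-well plates, run in duplicate at five tenfold concentrations (1–10,000 nM). Each screen included DMSO or 100 nM of one of three metabolic inhibitors and ran 72 h at 37 °C, 5% CO2. CellTiter-Glo viability was scaled between DMSO and 10 μM proteasome-inhibitor wells. Any area under the curve comes from four-parameter log-logistic fits with drc and PharmacoGx.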

CC1(C)[C@@H](O[C@H]2O[C@H](C(=O)O)[C@@H](O)[C@H](O)[C@H]2O[C@@H]2O[C@H](C(=O)O)[C@@H](O)[C@H](O)[C@H]2O)CC[C@]2(C)[C@H]3C(=O)C=C4[C@@H]5C[C@@](C)(C(=O)O)CC[C@]5(C)CC[C@@]4(C)[C@]3(C)CC[C@@H]12 [Glycyrrhizin]
Conditions | IC50 (cell viability) [µM]
BV-173 [1] | > 10
HEL [2] | > 10
HL-60 [3] | > 10
K-562 | > 10
KCL-22 [4] | > 10
KG-1 [5] | > 10
KU-812 [6] | > 10
LAMA-84 [7] | > 10
ML-2 [8] | > 10
MOLM-13 [9] | > 10
MV4-11 [10] | > 10
Mono-Mac-6 [11] | > 10
NOMO-1 [12] | > 10
SHI-1 [13] | > 10
THP-1 [14] | > 10

Conditions | area under dose-response curve, co-treatment: AZD3965 100 nM | area under dose-response curve, co-treatment: DMSO vehicle | area under dose-response curve, co-treatment: GSK2194069 100 nM | area under dose-response curve, co-treatment: pictilisib 100 nM | cell viability, 1 nM [%] | cell viability, 10 nM [%] | cell viability, 100 nM [%] | cell viability, 1000 nM [%] | cell viability, 10000 nM [%]
BV-173 [15] | – | – | – | – | 88.9 | 109 | 117 | 95.4 | 83.4
HEL [16] | – | – | – | – | 99.8 | 108 | 107 | 109 | 84.8
HL-60 [17] | – | – | – | – | 74.5 | 101 | 113 | 103 | 98.7
HL-60 [29] | < 0.0301 | < 0.0301 | < 0.0301 | < 0.0301 | – | – | – | – | –
KCL-22 [18] | – | – | – | – | 89.9 | 95.3 | 105 | 99.3 | 97.2
KG-1 [19] | – | – | – | – | 90 | 108 | 114 | 101 | 106
KU-812 [20] | – | – | – | – | 87.4 | 92 | 107 | 99.6 | 84.3
LAMA-84 [21] | – | – | – | – | 94.9 | 98.8 | 98.7 | 92.7 | 102
ML-2 [22] | – | – | – | – | 101 | 110 | 104 | 114 | 99.5
MOLM-13 [23] | – | – | – | – | 70.1 | 91.4 | 133 | 79.3 | 92.3
MV4-11 [24] | – | – | – | – | 89 | 108 | 108 | 85.3 | 102
Mono-Mac-6 [25] | – | – | – | – | 94.1 | 103 | 104 | 94.8 | 89
NOMO-1 [26] | – | – | – | – | 97.5 | 107 | 103 | 100 | 93.4
SHI-1 [27] | – | – | – | – | 95.5 | 100 | 114 | 105 | 97.2
THP-1 [28] | – | – | – | – | 92.1 | 103 | 95.8 | 98.4 | 96.2

CN(C)c1cc(NC(=O)CNC(C)(C)C)c(O)c2c1C[C@H]1C[C@H]3[C@H](N(C)C)C(=O)C(C(N)=O)C(=O)[C@@]3(O)C(=O)C1C2=O (some centres not stated) [Tigecycline]
Conditions | IC50 (cell viability) [µM]
BV-173 [1] | > 10
HEL [2] | > 10
HL-60 [3] | > 10
K-562 | > 10
KCL-22 [4] | > 10
KG-1 [5] | > 10
KU-812 [6] | > 10
LAMA-84 [7] | > 10
ML-2 [8] | > 10
MOLM-13 [9] | > 10
MV4-11 [10] | > 10
Mono-Mac-6 [11] | > 10
NOMO-1 [12] | > 10
SHI-1 [13] | > 10
THP-1 [14] | > 10

Conditions | area under dose-response curve, co-treatment: AZD3965 100 nM | area under dose-response curve, co-treatment: DMSO vehicle | area under dose-response curve, co-treatment: GSK2194069 100 nM | area under dose-response curve, co-treatment: pictilisib 100 nM | cell viability, 1 nM [%] | cell viability, 10 nM [%] | cell viability, 100 nM [%] | cell viability, 1000 nM [%] | cell viability, 10000 nM [%]
BV-173 [15] | – | – | – | – | 119 | 107 | 97.4 | 84 | 83.4
HEL [16] | – | – | – | – | 110 | 92.4 | 101 | 99.7 | 71.6
HL-60 [17] | – | – | – | – | 153 | 81.2 | 69.6 | 110 | 75.6
HL-60 [29] | < 0.0301 | < 0.0301 | < 0.0301 | < 0.0301 | – | – | – | – | –
KCL-22 [18] | – | – | – | – | 108 | 95 | 96.4 | 94.6 | 79.4
KG-1 [19] | – | – | – | – | 111 | 82.5 | 104 | 94.8 | 66.5
KU-812 [20] | – | – | – | – | 102 | 97 | 95.8 | 94.4 | 86.8
LAMA-84 [21] | – | – | – | – | 105 | 94.3 | 105 | 102 | 90
ML-2 [22] | – | – | – | – | 118 | 93.4 | 90.8 | 96.4 | 63
MOLM-13 [23] | – | – | – | – | 119 | 84 | 90.8 | 96 | 88.9
MV4-11 [24] | – | – | – | – | 117 | 89.3 | 101 | 88.3 | 93.2
Mono-Mac-6 [25] | – | – | – | – | 112 | 108 | 100 | 105 | 93.7
NOMO-1 [26] | – | – | – | – | 106 | 97.7 | 87 | 101 | 99.3
SHI-1 [27] | – | – | – | – | 113 | 97.9 | 97.1 | 115 | 93.4
THP-1 [28] | – | – | – | – | 107 | 100 | 104 | 105 | 105

C=C(C=NNC(=N)N)NNC(=N)N [Mitoguazone]
Conditions | IC50 (cell viability) [µM]
BV-173 [1] | 1.44
HEL [2] | 9.12
HL-60 [3] | 7.01
K-562 | 1.32
KCL-22 [4] | 4.4
KG-1 [5] | 3.31
KU-812 [6] | 4.55
LAMA-84 [7] | 2.29
ML-2 [8] | 0.916
MOLM-13 [9] | 0.944
MV4-11 [10] | 1.13
Mono-Mac-6 [11] | 1.24
NOMO-1 [12] | 1.59
SHI-1 [13] | 1.1
THP-1 [14] | 3.08

Conditions | area under dose-response curve, co-treatment: AZD3965 100 nM | area under dose-response curve, co-treatment: DMSO vehicle | area under dose-response curve, co-treatment: GSK2194069 100 nM | area under dose-response curve, co-treatment: pictilisib 100 nM | cell viability, 1 nM [%] | cell viability, 10 nM [%] | cell viability, 100 nM [%] | cell viability, 1000 nM [%] | cell viability, 10000 nM [%]
BV-173 [15] | – | – | – | – | 105 | 111 | 107 | 71 | 13.3
HEL [16] | – | – | – | – | 103 | 108 | 97.5 | 93.2 | 50.4
HL-60 [17] | – | – | – | – | 85.2 | 73.2 | 148 | 97.7 | 32.9
HL-60 [29] | 0.0689 | < 0.0301 | 0.0353 | 0.0324 | – | – | – | – | –
KCL-22 [18] | – | – | – | – | 94.4 | 100 | 103 | 86.9 | 42
KG-1 [19] | – | – | – | – | 94.9 | 97.2 | 103 | 84.7 | 34.8
KU-812 [20] | – | – | – | – | 105 | 107 | 96.5 | 83 | 30.6
LAMA-84 [21] | – | – | – | – | 99.9 | 104 | 100 | 86.6 | 24.4
ML-2 [22] | – | – | – | – | 97.7 | 104 | 100 | 56.6 | 24.7
MOLM-13 [23] | – | – | – | – | 93.7 | 88.3 | 133 | 52.2 | 13.8
MV4-11 [24] | – | – | – | – | 105 | 99.2 | 115 | 59.8 | 10.4
Mono-Mac-6 [25] | – | – | – | – | 92.4 | 92.3 | 85.5 | 55.3 | 18.1
NOMO-1 [26] | – | – | – | – | 94.9 | 102 | 90.9 | 61.7 | 16.2
SHI-1 [27] | – | – | – | – | 93.8 | 89.2 | 95.4 | 59.8 | 20.6
THP-1 [28] | – | – | – | – | 101 | 104 | 94.9 | 76.1 | 43.6
